Measurements taken from ChEMBL document CHEMBL1124539, “17-Desoxy estrogen analogues” (J Med Chem, 1989).
In brackets after ≈: the same amount, converted by molar mass.

Assays:
[1] = molecular target: T1, Estrogen receptor (Rattus norvegicus) (UniProt P06211+Q62986)
Rattus norvegicus [2] = organism: Rattus norvegicus
[3] = molecular target: T1, Estrogen receptor (Rattus norvegicus); remark: listed apart in the source
[4] = molecular target: T1, Estrogen receptor (Rattus norvegicus); remark: listed apart in the source
Estrogen receptor [5] = molecular target: T2, Estrogen receptor (Homo sapiens, UniProt Q92731+P03372); test: Displacement of [3H]estradiol from estrogen receptor in immature rabbit; type: protein assay, Oryctolagus cuniculus; details: target entry is the homologue from another species
Estrogen receptor [6] = molecular target: T2, Estrogen receptor; details: Macaca mulatta
Rattus norvegicus [7] = test: In vivo anti-fertility activity in rat; type: functional
Estrogen receptor [8] = molecular target: T3, Estrogen receptor (Rattus norvegicus, UniProt P06211+Q62986); test: Displacement of [3H]estradiol from estrogen receptor in immature rat; type: protein assay
Estrogen receptor [9] = molecular target: T2, Estrogen receptor; test: Displacement of [3H]estradiol from estrogen receptor in squirrel monkey; type: protein assay
Estrogen receptor [10] = molecular target: T3, Estrogen receptor; test: Displacement of [3H]estradiol from estrogen receptor in mature rat; type: protein assay
Estrogen receptor [11] = molecular target: T3, Estrogen receptor
Estrogen receptor [12] = molecular target: T3, Estrogen receptor; remark: listed apart in the source
Rattus norvegicus [13] = test: In vivo […] activity in rats; type: functional
Rattus norvegicus [14] = test: In vivo antifertility potency in rats at 200 ug/kg/day; type: functional
[15] = Selectivity ratio for antifertility and estrogenic potencies in rats; type: functional
[16] = molecular target: T1, Estrogen receptor (Rattus norvegicus); test: In vivo estrogenic receptor potency relative to ethynylestradiol in rat; type: functional, organism-based
[17] = molecular target: T1, Estrogen receptor (Rattus norvegicus); test: In vivo uterotrophic effect in immature rats; type: functional, organism-based
Estrogen receptor [18] = molecular target: T2, Estrogen receptor; test: Estrogenic effect in rhesus monkey relative to ethynylestradiol; type: functional; details: Macaca mulatta; target entry is the homologue from another species

| SMILES | Estrogenic potency [1] | Antifertility potency (Rattus norvegicus [2]) | other results |
| --- | --- | --- | --- |
| CC[C@H]1CC[C@H]2[C@@H]3[C@H](O)Cc4cc(O)ccc4[C@H]3CC[C@]12C | 0.04 | <10 | – |
| CC(=O)[C@H]1CC[C@H]2[C@@H]3CCc4cc(O)ccc4[C@H]3CC[C@]12C | 0.01 | <4 | – |
| C[C@]12CC[C@@H]3c4ccc(O)cc4CC[C@H]3[C@@H]1CC/C2=N\Nc1ccccn1 | 0.1 | <4 | – |
| C/C=C1\CC[C@H]2[C@@H]3CCc4cc(O)ccc4[C@H]3CC[C@]12C | 0.3 | 10 | – |
| C#C[C@]1(O)CC[C@H]2[C@@H]3[C@H](O)Cc4cc(O)ccc4[C@H]3CC[C@@]21C | 0.3 | 66 | Uterotrophic effect [3]: 10; Uterotrophic effect [4]: 0.1; EC50 (Estrogen receptor [5]): 36 µg/mL (≈ 115 µM); Estrogenic effect (Estrogen receptor [6]): 100; Antifertility activity (Rattus norvegicus [7]): 66; EC50 (Estrogen receptor [8]): 18 µg/mL (≈ 57.6 µM); EC50 (Estrogen receptor [9]): 52 µg/mL (≈ 166 µM); EC50 (Estrogen receptor [10]): 6 µg/mL (≈ 19.2 µM) |
| COc1ccc2c(c1)CC[C@@H]1[C@@H]2CC[C@]2(C)[C@@H](c3ccccc3)CC[C@@H]12 | < 0.1 | <4 | – |
| CC[C@H]1CC[C@H]2[C@@H]3CCc4cc(O)ccc4[C@H]3CC[C@]12C (stereo in doubt; 8b) [listing 1 of 2 here] | – | 66 | EC50 (Estrogen receptor [11]): 20 µg/mL (≈ 70.3 µM); EC50 (Estrogen receptor [5]): 11 µg/mL (≈ 38.7 µM); EC50 (Estrogen receptor [12]): 8 µg/mL (≈ 28.1 µM); Infertility activity (Rattus norvegicus [13]): 66; EC50 (Estrogen receptor [9]): 60 µg/mL (≈ 211 µM) |
| C#C[C@H]1CC[C@H]2[C@@H]3CCc4cc(O)ccc4[C@H]3CC[C@]12C | 0.07 | <10 | – |
| C#C[C@]1(O)CC[C@H]2[C@@H]3CCc4cc(O)ccc4[C@H]3CC[C@@]21C [ETHINYL ESTRADIOL] | – | 100 | Infertility activity (Rattus norvegicus [13]): 100 |
| COc1ccc2c(c1)CCC1C2CCC2(C)C1C=C[C@@]2(O)c1ccccc1 (stereo partly specified) | 0.14 | – | Antifertility potency (Rattus norvegicus [14]): <10 |
| C[C@]12CC[C@@H]3c4ccc(O)cc4CC[C@H]3[C@@H]1CC[C@@H]2CO | 0.03 | <110 | – |
| CCCC[C@H]1CC[C@H]2[C@@H]3CCc4cc(O)ccc4[C@H]3CC[C@]12C | 0.4 | <10 | – |
| CC[Si](C#C[C@]1(O)CC[C@H]2[C@@H]3CCc4cc(O)ccc4[C@H]3CC[C@@]21C)(CC)CC | 37 | 600 | – |
| CC[C@H]1CC[C@H]2[C@@H]3CCc4cc(O)ccc4[C@H]3CC[C@]12C (stereo in doubt; 8i) [listing 1 of 2 here] | – | <40 | – |
| C=C1CC[C@H]2[C@@H]3[C@H](O)Cc4cc(O)ccc4[C@H]3CC[C@]12C | 0.1 | <20 | – |
| C=C[C@H]1CC[C@H]2[C@@H]3CCc4cc(O)ccc4[C@H]3CC[C@]12C | 0.26 | 10 | – |
| CO/N=C1\CC[C@H]2[C@@H]3CCc4cc(O)ccc4[C@H]3CC[C@]12C | 0.04 | – | Antifertility potency (Rattus norvegicus [14]): 4 |
| CC[C@H]1CC[C@H]2[C@@H]3CCc4cc(O)ccc4[C@H]3CC[C@]12C (stereo in doubt; 8i) [listing 2 of 2 here] | 0.16 | – | – |
| C[C@H]1CC[C@H]2[C@@H]3CCc4cc(O)ccc4[C@H]3CC[C@]12C | 0.3 | 20 | – |
| CC[Si](C#C[C@H]1CC[C@H]2[C@@H]3CCc4cc(O)ccc4[C@H]3CC[C@]12C)(CC)CC | 0.04 | <4 | – |
| C=C(C)[C@H]1CC[C@H]2[C@@H]3CCc4cc(O)ccc4[C@H]3CC[C@]12C | 0.08 | <10 | – |
| CC(F)(F)[C@H]1CC[C@H]2[C@@H]3CCc4cc(O)ccc4[C@H]3CC[C@]12C | 0.09 | <20 | – |
| C=C1CC[C@H]2[C@@H]3CCc4cc(O)ccc4[C@H]3CC[C@]12C | 0.5 | 40 | Estrogenic potency ([1]; tested as the 2H-labelled form): 0.65; Ratio [15]: 80; EC50 (Estrogen receptor [5]): 1.5 µg/mL (≈ 5.59 µM); EC50 (Estrogen receptor [10]): 0.8 µg/mL (≈ 2.98 µM) |
| COc1ccc2c(c1)CC[C@@H]1[C@@H]2CC[C@@]2(C)[C@H]1CC[C@@]2(O)c1ccccc1 | 0.69 | 10 | – |

| SMILES | Estrogenic potency [1] | Antifertility potency (Rattus norvegicus [2]) | other results |
| --- | --- | --- | --- |
| C/C=C1/CC[C@H]2[C@@H]3CCc4cc(O)ccc4[C@H]3[C@H](O)C[C@]12C | 0.04 | <7 | – |
| CC[C@H]1CC[C@H]2[C@@H]3CCc4cc(O)ccc4[C@H]3CC[C@]12C (stereo in doubt; 8b) [listing 2 of 2 here] | – | – | Uterotrophic effect [3]: 11; Estrogenic potency [16]: 1; Uterotrophic effect [4]: 1 |
| CC12CCC3c4ccc(O)cc4CCC3C1C=CC2C#N (stereo unspecified) | < 0.1 | – | Antifertility potency (Rattus norvegicus [14]): <4 |
| C=C1CCC2C3C=Cc4cc(O)ccc4C3CCC12C (stereo unspecified) | 0.04 | <5 | – |
| C[C@]12CC[C@@H]3c4ccc(O)cc4CC[C@H]3[C@@H]1CC/C2=N\O | 0.28 | – | Antifertility potency (Rattus norvegicus [14]): 4 |
| C[C@]12CC[C@@H]3c4ccc(O)cc4CC[C@H]3[C@@H]1CC/C2=N\N | 1.6 | <10 | – |
| CC[C@H]1CC[C@H]2[C@@H]3C(C)Cc4cc(O)ccc4[C@H]3CC[C@]12C (stereo partly specified) | 15 | <200 | – |
| C[C@]12CC[C@@H]3c4ccc(O)cc4CC[C@H]3[C@@H]1CC[C@@H]2C#N | 0.05 | <10 | – |
| CC[Si](CC)(CC)CC[C@H]1CC[C@H]2[C@@H]3CCc4cc(O)ccc4[C@H]3CC[C@]12C | 0.27 | 10 | – |
| C[C@]12CC[C@@H]3c4ccc(O)cc4CC[C@H]3[C@@H]1CC/C2=C\C=O | 0.05 | 10 | – |
| CC/C=C1\CC[C@H]2[C@@H]3CCc4cc(O)ccc4[C@H]3CC[C@]12C | 0.4 | <20 | – |
| [2H]C([2H])=C1CC[C@H]2[C@@H]3CCc4cc(O)ccc4[C@H]3CC[C@]12C | – | 67 | – |
| CC[C@H]1CC[C@H]2[C@@H]3CCc4cc(O)ccc4[C@H]3[C@@H](OC)C[C@]12C | 37 | >2000 | – |
| CC[C@H]1CC[C@H]2[C@@H]3CCc4cc(O)ccc4[C@H]3[C@@](C)(O)C[C@]12C | 0.05 | <20 | – |
| CCC/C=C1\CC[C@H]2[C@@H]3CCc4cc(O)ccc4[C@H]3CC[C@]12C | 0.2 | <20 | – |
| C#C[C@]1(O)CC[C@H]2[C@@H]3CCc4cc(O)ccc4[C@H]3[C@@H](O)C[C@@]21C | 120 | 200 | Uterotrophic effect [3]: 19; EC50 (Estrogen receptor [11]): 5.2 µg/mL (≈ 16.6 µM); Uterotrophic effect [4]: 5; EC50 (Estrogen receptor [5]): 8 µg/mL (≈ 25.6 µM); Estrogenic effect (Estrogen receptor [6]): 500; Infertility activity [17]: 150; EC50 (Estrogen receptor [12]): 16 µg/mL (≈ 51.2 µM); Infertility activity (Rattus norvegicus [13]): 100; EC50 (Estrogen receptor [9]): 150 µg/mL (≈ 480 µM) |
| C=C1C[C@]2(C)[C@@H](CC)CC[C@H]2[C@@H]2CCc3cc(O)ccc3[C@@H]12 | 64 | 400 | – |
| CCC[C@H]1CC[C@H]2[C@@H]3CCc4cc(O)ccc4[C@H]3CC[C@]12C | 0.8 | 20 | – |
| CC[C@H]1CC[C@H]2[C@@H]3CCc4cc(O)ccc4[C@H]3C(=O)C[C@]12C | – | >1000 | – |
| CC[C@H]1CC[C@H]2[C@@H]3CCc4cc(O)ccc4[C@H]3[C@@H](O)C[C@]12C | 0.03 | 20 | Uterotrophic effect [3]: 2; EC50 (Estrogen receptor [11]): 5.6 µg/mL (≈ 18.6 µM); Uterotrophic effect [4]: 0.04; Estrogenic effect (Estrogen receptor [18]): < 8; Antifertility activity (Rattus norvegicus [7]): 20; EC50 (Estrogen receptor [9]): 22 µg/mL (≈ 73.2 µM) |
| C[C@]12CC[C@@H]3c4ccc(O)cc4CC[C@H]3[C@@H]1CCC2=S | 2.4 | – | – |
| C=C1CC[C@H]2[C@@H]3CCc4cc(O)ccc4[C@H]3[C@H](O)C[C@]12C | 0.02 | 10 | – |
| C#C[C@]1(O)CC[C@H]2[C@@H]3CCc4cc(O)ccc4[C@H]3[C@@H](OC)C[C@@]21C [MOXESTROL] | 2000 | 1000 | – |
